The values that follow come from patent publication US5276023A, “19-nor-steroid esters” (Roussel Uclaf, priority 1989, dated 1994).

This series in a line: solubility in water. The series is classed as physicochemical.

Consider `CC#C[C@]1(OC(=O)CCC(=O)O)CC[C@H]2[C@@H]3CCC4=CC(=O)CCC4=C3[C@@H](c3ccc(N(C)C(C)C)cc3)C[C@@]21C` [Example 18, Sodium and 11β-[4(N-methyl-isopropylamino)-phenyl]-17α-(1-propynyl)-Δ^4,9-estradien-3-one-17β-yl succinate], for which the solubility (in general, how much of the substance goes into solution per volume) is > 250 mg/mL.
